Reference: PMC8958504 (Journal of Medicinal Chemistry, 2022)
Values joined by “and” are separate entries in the source; they are usually repeats but may differ in a detail not shown here. Identical values can stand only once.

How the values were obtained:
hMAO-A = target: T1, hMAO-A (Homo sapiens, UniProt P21397); experiment: biochemical; conditions: read-out: hMAO-A (IC50); recombinant hMAO-A, p-tyramine substrate
T1 sequence (P21397 1-527): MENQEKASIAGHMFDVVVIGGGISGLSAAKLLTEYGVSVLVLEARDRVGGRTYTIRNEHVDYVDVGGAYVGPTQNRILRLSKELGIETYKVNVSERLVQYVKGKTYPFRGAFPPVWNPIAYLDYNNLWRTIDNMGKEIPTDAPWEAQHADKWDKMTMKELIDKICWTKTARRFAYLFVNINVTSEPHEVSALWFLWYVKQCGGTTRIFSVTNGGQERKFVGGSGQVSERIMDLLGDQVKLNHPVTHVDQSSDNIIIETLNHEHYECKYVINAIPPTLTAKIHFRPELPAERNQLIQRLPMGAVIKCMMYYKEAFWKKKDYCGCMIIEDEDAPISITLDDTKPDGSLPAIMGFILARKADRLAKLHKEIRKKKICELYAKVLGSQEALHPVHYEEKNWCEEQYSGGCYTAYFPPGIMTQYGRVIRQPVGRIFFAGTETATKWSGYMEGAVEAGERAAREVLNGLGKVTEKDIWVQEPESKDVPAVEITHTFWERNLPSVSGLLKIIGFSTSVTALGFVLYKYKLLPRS
Method: (§1) The hMAO-A/B inhibition of all compounds was determined using the Amplex Red MAO assay kit.
(§2) Assays were performed following the general procedure previously described.[98] […] The specific fluorescence emission was calculated after subtracting the background activity, which was determined from wells containing all components except the hMAO isoforms, which were replaced with PBS.

hMAO-B = target: T2, hMAO-B (Homo sapiens, UniProt P27338); experiment: biochemical; conditions: read-out: hMAO-B (IC50); recombinant hMAO-B, p-tyramine substrate
T2 sequence (P27338 1-520): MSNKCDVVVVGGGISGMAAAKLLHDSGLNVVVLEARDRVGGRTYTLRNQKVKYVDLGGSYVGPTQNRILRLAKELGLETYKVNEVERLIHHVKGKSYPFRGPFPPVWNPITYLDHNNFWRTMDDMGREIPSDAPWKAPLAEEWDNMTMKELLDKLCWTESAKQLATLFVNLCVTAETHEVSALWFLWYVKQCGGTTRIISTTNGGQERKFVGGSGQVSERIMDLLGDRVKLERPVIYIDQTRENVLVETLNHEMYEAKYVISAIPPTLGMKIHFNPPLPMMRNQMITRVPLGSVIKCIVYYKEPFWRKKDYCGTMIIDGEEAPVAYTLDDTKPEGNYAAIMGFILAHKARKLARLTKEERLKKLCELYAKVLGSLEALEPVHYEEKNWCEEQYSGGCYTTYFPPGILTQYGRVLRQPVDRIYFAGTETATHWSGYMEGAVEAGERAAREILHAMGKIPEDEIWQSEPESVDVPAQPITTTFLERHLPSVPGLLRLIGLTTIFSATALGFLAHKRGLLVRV
Method: as §1, §2

[1] = Oxygen radical absorbance capacity (ORAC-FL) assay; conditions: trolox = 1.0
QR2 = target: T3, QR2 (Mesocricetus auratus, UniProt A0ABM2YAB8); experiment: biochemical
T3 sequence (A0ABM2YAB8 1-231): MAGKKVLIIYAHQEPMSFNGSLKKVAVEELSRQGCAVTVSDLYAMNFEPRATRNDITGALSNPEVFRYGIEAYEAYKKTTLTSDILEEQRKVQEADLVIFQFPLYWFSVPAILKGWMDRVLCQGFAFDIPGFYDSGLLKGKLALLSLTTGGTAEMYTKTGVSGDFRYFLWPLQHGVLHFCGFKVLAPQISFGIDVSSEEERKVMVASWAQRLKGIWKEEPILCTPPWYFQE
Method: The QR2 experiments were performed in membrane homogenates of hamster brains (https://www.eurofins.fr, catalog ref. 0088). […] First, radioligand displacement was measured at a fixed compound concentration (10 μM) in each receptor.

Thermodynamic solubility = format: physicochemical; conditions: phosphate buffer pH 7.4
p65 = experiment: Western blotting of p65 in hippocampal slices exposed to OA; format: cell-based, mouse; conditions: hippocampal slices treated with OA
Excerpt: As iNOS can be produced through the NF-κB (nuclear factor kappa-light-chain-enhancer of activated B cells) pathway, we analyzed the levels of p65, one of the components that form the NF-κB transcription factor family.[82] […] We also measured HO-1, an inducible enzyme transcribed by NRF2, known for its anti-inflammatory, antioxidant, and neuroprotective effects. […] NRF2 and NF-κB signaling pathways cooperate to maintain the physiological homeostasis of cellular redox status and to regulate the cellular response to stress and inflammation.[19],[83] […] This last mechanism could be related to our resveratrol-based MTDL 4e.
After acute treatment, the hippocampal slices were lysed in a cold AKT lysis buffer (137 mM NaCl, 20 mM NaF, 10% glycerol, 20 mM Tris–HCl, 1% Nonidet P-40, 1 μg/mL leupeptin, 1 mM phenylmethylsulfonylfluoride, 1 mM sodium pyrophosphate, and 1 mM Na3VO4, pH 7.5). The total protein in each sample was quantified using the Pierce BCA protein kit (Thermo Fisher). 20 μg of protein was resolved by sodium dodecyl sulfate polyacrylamide gel electrophoresis (SDS-PAGE) and transferred to Immobilon-P PVDF membranes (Millipore Corp.). […] The membranes were washed, incubated with ECL WB Kit (GE Healthcare, Amersham), and exposed using a ChemiDoc MP system (Bio-Rad Laboratories) for the visualization of the specific bands, which were then analyzed with Fiji software.

For `C#CCn1nc(/C=C/c2ccc(OC)cc2)oc1=O` [4e, 5-[(E)-2-(4-Methoxyphenyl)ethenyl]-3-(prop-2-yn-1-yl)-1,3,4-oxadiazol-2(3H)-one], the IC50 (hMAO-A) was over 50 µM, the IC50 (hMAO-B) was 8.05 ± 1.82 µM and the “ORAC (trolox equiv)” value [1] was under 0.1 trolox equiv. For the same compound, the IC50 (QR2) was 0.57 ± 0.04 µM, the solubility thermodynamic (Thermodynamic solubility) was 76.1 µM and 19.5 µg/mL and the p65 level (p65) was “slightly reduced p65 below to the basal value”.
